Reference: publication PMC5161585 (Nature, 2016)
Entries after “also recorded” stand apart in the source; their conditions may differ.

Legend:
[1] = target: T1, κOR (Homo sapiens, UniProt P41145); test: Gi/o Glosensor assay at κOR; format: cell-based
[2] = target: T2, human μOR (Homo sapiens, UniProt P35372); test: β-arrestin-2 recruitment by BRET in HEK-293T cells; format: cell-based
[3] = test system: C57BL/6J mice; test: Hotplate assay subcategorized into affective and reflexive responses; format: in vivo, mouse; conditions: for analgesia on affective versus reflexive component of pain: morphine 10 mg/kg, PZM21 20 mg/kg
[4] = test system: mice; test: Open field locomotor response; format: in vivo, mouse; conditions: morphine 10 mg/kg, PZM21 20 mg/kg
[5] = target: SSTR4 (Homo sapiens, UniProt P31391); test: Gi/o Glosensor assay measuring SSTR4 activation; format: cell-based
[6] = test system: mice; test: Accumulated faecal boli quantification; format: in vivo, mouse; conditions: morphine 10 mg/kg, PZM21 20 mg/kg
[7] = test system: mice; test: Formalin injection nociception assay; format: in vivo, mouse; conditions: morphine 10 mg/kg, PZM21 40 mg/kg
[8] = Metabolism in mouse liver microsomes; format: in vitro ADME; conditions: over one hour, 80 μM
[9] = test system: Oprm1−/− mice; test: Hotplate assay in μOR knockout mice; format: in vivo, mouse; conditions: morphine 10 mg/kg, PZM21 20 mg/kg, 30 min
[10] = test system: C57BL/6J mice; test: Mouse hotplate analgesia assay; conditions: 15 min after the highest dose tested (40 mg/kg), subcutaneous
[11] = test system: C57BL/6J mice; test: Mouse tail-flick assay; conditions: in vivo
[12] = target: nociceptin receptor (Homo sapiens, UniProt P41146); test: Gi/o Glosensor assay at nociceptin receptor; format: cell-based
[13] = target: T3, δOR (Homo sapiens, UniProt P41143); test: Radioligand binding at δOR; conditions: read-out: δOR Ki
[14] = Pharmacokinetics of PZM21, serum and brain levels; format: in vivo, mouse; conditions: 20 mg/kg subcutaneous, mice
[15] = test system: 320 non-olfactory GPCRs; test: PRESTO-Tango GPCRome β-arrestin recruitment screen; format: cell-based; conditions: 10 μM screen, hits re-tested in full dose–response
[16] = test system: mice; test: Catalepsy bar test; format: in vivo, mouse; conditions: PZM21 20 mg/kg, morphine 10 mg/kg
[17] = test system: mice; test: Whole-body mouse plethysmography; format: in vivo; conditions: equi-analgesic doses: PZM21 40 mg/kg, TRV130 1.2 mg/kg, morphine 10 mg/kg
[18] = test system: mice; test: Conditioned place preference; format: in vivo, mouse; conditions: morphine 10 mg/kg, PZM21 20 mg/kg, TRV130 1.2 mg/kg
[19] = target: T1, κOR; test: Radioligand binding at κOR; conditions: read-out: κOR Ki
[20] = target: T3, δOR; test: Gi/o Glosensor assay at δOR; format: cell-based
[21] = target: T2, human μOR; test: BRET-based; format: cell-based; conditions: read-out: EC50 in CAMYEL-based Gi/o signalling assay
[22] = target: T2, human μOR; test: Receptor internalization, PathHunter GPCR internalization assay in U2OS cells; format: cell-based

T1 sequence (P41145 whole entry): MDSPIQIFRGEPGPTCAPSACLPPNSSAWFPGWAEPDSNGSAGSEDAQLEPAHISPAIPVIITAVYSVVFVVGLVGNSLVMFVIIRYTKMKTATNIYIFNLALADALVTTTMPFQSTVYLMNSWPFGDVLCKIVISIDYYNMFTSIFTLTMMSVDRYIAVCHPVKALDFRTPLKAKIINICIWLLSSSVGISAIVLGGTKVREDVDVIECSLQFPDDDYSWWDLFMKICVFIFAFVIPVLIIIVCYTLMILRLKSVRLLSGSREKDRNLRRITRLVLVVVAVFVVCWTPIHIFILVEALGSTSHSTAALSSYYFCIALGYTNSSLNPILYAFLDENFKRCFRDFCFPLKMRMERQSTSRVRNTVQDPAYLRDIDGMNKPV
T2 sequence (P35372 whole entry): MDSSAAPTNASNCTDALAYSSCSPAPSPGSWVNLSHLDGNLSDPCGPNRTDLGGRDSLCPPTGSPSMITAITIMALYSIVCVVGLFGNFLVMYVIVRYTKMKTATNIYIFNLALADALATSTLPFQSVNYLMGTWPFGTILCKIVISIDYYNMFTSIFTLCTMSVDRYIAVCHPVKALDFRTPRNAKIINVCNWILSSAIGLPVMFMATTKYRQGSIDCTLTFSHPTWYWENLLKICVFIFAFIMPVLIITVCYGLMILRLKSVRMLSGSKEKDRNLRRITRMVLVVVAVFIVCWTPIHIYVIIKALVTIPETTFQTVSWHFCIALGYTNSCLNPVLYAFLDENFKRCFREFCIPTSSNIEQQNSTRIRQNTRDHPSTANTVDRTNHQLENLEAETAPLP
T3 sequence (P41143 whole entry): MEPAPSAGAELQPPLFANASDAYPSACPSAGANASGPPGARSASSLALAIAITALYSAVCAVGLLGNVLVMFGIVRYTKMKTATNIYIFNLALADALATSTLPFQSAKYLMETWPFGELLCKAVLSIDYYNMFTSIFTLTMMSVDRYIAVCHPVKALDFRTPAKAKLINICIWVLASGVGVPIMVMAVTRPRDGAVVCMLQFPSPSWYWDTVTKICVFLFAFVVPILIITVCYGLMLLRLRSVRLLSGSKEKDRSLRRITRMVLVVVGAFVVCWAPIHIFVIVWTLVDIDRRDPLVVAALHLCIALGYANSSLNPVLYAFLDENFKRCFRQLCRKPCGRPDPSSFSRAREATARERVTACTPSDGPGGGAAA
SSTR4, sequence (P31391 whole entry, species assumed): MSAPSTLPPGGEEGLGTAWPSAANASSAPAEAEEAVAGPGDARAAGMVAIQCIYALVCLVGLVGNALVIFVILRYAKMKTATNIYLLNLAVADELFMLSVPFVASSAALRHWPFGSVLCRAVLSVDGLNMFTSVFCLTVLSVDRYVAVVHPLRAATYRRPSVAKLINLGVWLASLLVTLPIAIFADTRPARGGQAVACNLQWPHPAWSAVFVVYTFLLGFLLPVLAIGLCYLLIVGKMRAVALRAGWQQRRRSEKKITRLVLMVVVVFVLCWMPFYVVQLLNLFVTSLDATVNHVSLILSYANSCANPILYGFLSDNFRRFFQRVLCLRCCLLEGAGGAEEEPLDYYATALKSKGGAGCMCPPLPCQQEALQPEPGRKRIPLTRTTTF
nociceptin receptor, sequence (P41146 whole entry, species assumed): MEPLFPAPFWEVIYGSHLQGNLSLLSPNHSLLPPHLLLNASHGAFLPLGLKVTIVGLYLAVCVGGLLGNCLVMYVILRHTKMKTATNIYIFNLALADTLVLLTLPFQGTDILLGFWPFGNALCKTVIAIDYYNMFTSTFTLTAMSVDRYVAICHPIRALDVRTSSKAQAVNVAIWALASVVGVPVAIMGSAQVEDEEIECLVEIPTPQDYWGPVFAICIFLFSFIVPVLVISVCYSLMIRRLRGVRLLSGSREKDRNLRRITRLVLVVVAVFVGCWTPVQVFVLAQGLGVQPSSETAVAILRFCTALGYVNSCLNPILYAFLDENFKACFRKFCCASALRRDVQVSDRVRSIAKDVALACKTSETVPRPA

SMILES: COC(=O)[C@@H]1C[C@H](OC(=O)c2ccccc2)C(=O)[C@H]2[C@@]1(C)CC[C@H]1C(=O)O[C@H](c3ccoc3)C[C@]21C [Herkinorin, herkinorin]
- κOR agonist activity (in words) [1]: potent agonists of the κOR
- arrestin recruitment in BRET assay in the absence of GRK2 overexpression [2]: robustly recruits arrestin

SMILES: C[C@@H](Cc1ccsc1)NC(=O)NC[C@H](Cc1ccc(O)cc1)N(C)C [PZM21]
- duration of analgesia ([3]; hotplate): up to 180 min
- analgesia on affective versus reflexive component of pain [3]: solely confers analgesia to the affective component of pain; also recorded: only modulates the attending (affective) component
- effect on locomotion in open-field assay [4]: no apparent effect on locomotion versus vehicle
- SSTR4 activation, cAMP inhibition [5]: does not show a dose-dependent change in cAMP inhibition
- κOR agonist activity (in words) [1]: no detectable κOR or nociceptin receptor agonist activity
- constipating effect (accumulated faecal boli) [6]: constipating effect is substantially less than morphine
- analgesia in formalin injection nociception assay [7]: active in a formalin injection nociception assay
- metabolism by mouse liver microsomes [8]: 8%
- analgesic response in hotplate assay in μOR knockout mice [9]: completely ablates the observed analgesic response
- per cent maximal possible effect (% MPE), hotplate [10]: 87%
- analgesic effect in tail-flick assay [11]: no analgesic effect
- nociceptin receptor agonist activity (in words) [12]: no detectable κOR or nociceptin receptor agonist activity
- Ki [13]: 506 nM
- peak level in brain tissue [14]: 197 ng per g
- concomitant serum concentration ([14]; at brain peak): 1,253 ng/ml
- agonism at other GPCRs [15]: no potent activity was confirmed with a full dose–response experiment
- cataleptic effect [16]: minimal cataleptic effect compared to morphine
- effect on respiration frequency [17]: almost undistinguishable from vehicle
- conditioned place preference [18]: does not induce a conditioned place preference response
- Ki [19]: 18 nM
- δOR Gi/o (Glosensor) Emax [20]: 78%
- EC50 ([20]; read-out: δOR Gi/o (Glosensor) EC50): 1900 nM

SMILES: CN(C)[C@H](CNC(=O)NCCc1ccccc1)Cc1ccc(O)cc1 [PZM22]
- EC50 [21]: 1.8 nM

SMILES: COc1ccsc1CNCC[C@@]1(c2ccccn2)CCOC2(CCCC2)C1 [TRV130]
- κOR agonist activity (in words) [1]: potent agonists of the κOR
- μOR internalization [22]: much decreased receptor internalization versus DAMGO and even morphine
- effect on respiration frequency [17]: significantly depresses respiration at 15 min
- conditioned place preference [18]: not significant relative to vehicle

SMILES: CN1CC[C@]23c4c5ccc(O)c4O[C@H]2[C@@H](O)C=C[C@H]3[C@H]1C5 [morphine, reference compound]
- analgesia on affective versus reflexive component of pain [3]: induces changes in both behaviours
- analgesia in formalin injection nociception assay [7]: sustained analgesia
- conditioned place preference [18]: Place preference is induced
